Laboratory results from PMC6272905, “In Vitro and In Vivo Characterization of Selected Fluorine-18 Labeled Radioligands for PET Imaging of the Dopamine D3 Receptor” (Molecules, 2016).
Where two headings read alike, the source gives them in different places.

Assays:
[1] = In vivo stability in blood of living rats (radiometabolites); set-up: species or system rat
Method: For the determination of radioligand stability in vivo and detection of radiometabolites the respective radiotracer (15 MBq) was administered intravenous to male Sprague Dawley rats (200–250 g) under isoflurane anesthesia. Blood samples were drawn intravenous after 5, 15 and 30 min and centrifuged for 5 min at 2000 rpm in heparin-coated vials. An aliquot of 50 µL was taken from the supernatant and added to an equal volume of water (10% TFA). The protein precipitate was centrifuged off for 5 min at 25,000 rpm and an aliquot of the supernatant was fractioned with HPLC (Chromolith RP-18e, 100 mm × 4.6 mm, 4 mL/min, solvent A: water (0.1% TFA), solvent B: acetonitrile (0.1% TFA), gradient A/B: 90:10 to 0:100 in 15 min, λ = 214 nm). The fractions were then analyzed in the gamma-counter. To identify the fractions containing the intact radioligand, the retention time and fractioning of the respective tracer was previously assessed. Two independent experiments were performed.

[2] = Free fraction in rat plasma; format: in vitro ADME; conditions: for bound to proteins in plasma: of the injected dose; for free radioligand in rat plasma: Figure 3b
Method: (§1) The free fraction in vitro was determined by adding the respective radioligand (100 kBq) to plasma or CSF (200 µL) and mixed vigorously. Aliquots of 20–50 µL were transferred to size exclusion chromatography columns (MicroSpin G-50; GE Healthcare GmbH, Solingen, Germany, centrifuged for two min at 2000 rpm, and the radioactivity in the filtrate and in the resin were measured in the gamma-counter. Three independent experiments were performed in triplicates.
For the ex vivo determination of the radioligands binding to proteins the respective tracer (15 MBq) was administered intravenous to male Sprague Dawley rats (200–250 g) under isoflurane anesthesia. Blood samples were drawn intravenous after 5, 15 and 30 min and centrifuged for 5 min at 2000 rpm in heparin-coated vials. An aliquot of 50 µL was taken from the supernatant and added to an equal volume of water (10% TFA). The protein precipitate was centrifuged off for 5 min at 25,000 rpm and analyzed together with a further 50 µL aliquot of the supernatant in the gamma-counter. Two independent experiments were performed.

[3] = Determination of log D7.4 (experimental); format: physicochemical; conditions: pH 7.4, n = 6
Method: Human serum was purchased (Biochrom, Biochrom, UK). Human plasma and cerebrospinal fluid was a kind gift from the laboratory of Prof. P. Lewczuk of the clinical neurochemistry in Erlangen. Rat plasma was collected from male Sprague Dawley blood samples. The blood samples were collected intravenous and centrifuged at 2000 rpm for 15 min in heparin coated vials. The supernatant was stored in aliquots at −20 °C. Radioactivity was measured with radio HPLC or in a gamma-counter (Wallac Wizard, PerkinElmer, Waltham, MA, USA). The determination of the distribution coefficient at pH 7.4 (log D7.4) has been previously published.

[4] = In vitro stability in human serum; format: in vitro ADME; conditions: 37 °C, after 120 min
Method: For the in vitro stability, an aliquot of the respective radioligand (1–5 MBq) was added to human serum (200 μL) and incubated at 37 °C. Aliquots (20 μL) were taken after 15, 30 and 120 min and analyzed by radio-HPLC (Method 1).

[5] = Binding to proteins in human plasma in vitro; format: in vitro ADME; conditions: human vs rat plasma
Method: as §1

D3 receptor [6] = target: T1, D3 receptor (Rattus norvegicus, UniProt P19020); test: In vitro autoradiography of coronal rat brain sections; format: binding; conditions: displacement with BP897
T1 construct: In vitro autoradiography of coronal rat brain sections after incubation with the respective radioligand; from tissue; host or cells: coronal brain cryosections (20 µm) of male Sprague Dawley rats
Method: Male Sprague Dawley rats (200–250 g) were sacrificed by decapitation under deep isoflurane anesthesia and brains were removed and frozen in cooled hexane at −70 °C. Coronal brain sections (20 µm) were cut on a cryostat microtome (HM550, Microm-Thermo Fisher Scientific, Walldorf, Germany) and thaw-mounted on covered glass slides (Histobond®, Marienfeld, Lauda Königshofen, Germany). The thaw mounted sections were stored at −20 °C up to 14 days.
The cryostat sections were pre-incubated for 15 min in incubation buffer (50 mM Tris-HCl, 40 mM NaCl, pH 7.4) at room temperature. The sections were then placed in incubation buffer containing 5 MBq of the respective tracer. For displacement studies BP897 (50 nM or 1 µM) was added. The sections were incubated at room temperature for 45 min and afterwards washed in ice cold incubation buffer for 3 × 5 min. Subsequently, they were dipped in water and after drying placed on a phosphor imaging screen (Fujitsu, Berlin, Germany) over night. The screens were analyzed with a DUERR Medical HD-CR 35 Bio (Raytest, Straubenhardt, Germany) and evaluated using the software AIDA image analyzer (Raytest). For anatomical identification of brain regions, the sections were compared with figures in the rat brain atlas.

D3 receptor [7] = conditions: cited from earlier work
dopamine D3 receptor = test: Dynamic small-animal PET recordings; format: in vivo; conditions: rat
Method: Small-animal PET imaging studies were conducted with male Sprague Dawleys rats (250–300 g) on a Inveon microPET scanner (Siemens Healthcare, Erlangen, Germany) under isoflurane (3%) anesthesia. After intravenous injection of [^18F]2b (10–15 MBq), dynamic emission recordings consisting of 13 frames of duration increasing from 30 s to 10 min were acquired to a total of 60 min. For displacement studies BP897 (1 mg/kg) was administered 30 min prior to radioligand injection. Dynamic emission images were corrected for attenuation and decay, and reconstructed by the iterative maximum a posteriori estimation, using software installed in the Inveon PET for dead time and random correction. The dynamic PET scan was then evaluated using the software Amide. The regions of interest were evaluated voxel based and the mean activity in %ID/g of each frame calculated.

[8] = set-up: method as in PMID 24339325, PMID 26707848; conditions: over 120 min, previously reported; cited from earlier work
[9] = set-up: method as in PMID 24339325, PMID 26707848; conditions: experimental, pH 7.4, n = 6, previously reported; cited from earlier work
P-gp [10] = target: T2, P-gp (Homo sapiens, UniProt P08183); test: P-gp inhibition assay (cellular uptake) in Caco-2 cells; format: cell-based; conditions: with vs without cyclosporin-A
T2 construct: endogenous in cells; host or cells: Caco-2
Method: (§2) EA.hy926 cells were seeded in culture medium at confluency the day prior to experiment or in case of the Caco-2 cells two days prior to experiment in 24-multiwell plates (Greiner Bio-One International GmbH, Kremsmünster, Austria). On the day of the experiment the culture medium was removed and the cells were washed once with PBS (500 µL). Culture medium supplemented with cyclosporine-A (5 µM for EA.hy926 and 10 µM for Caco-2) was added and the cells were incubated at 37 °C for 30 min. Afterwards 1 MBq of [^18F]2b was added to each well and incubated for further 30, 60 and 90 min. After incubation cells were washed with ice cold PBS (500 µL) and lysated with 0.1 M NaOH. The medium and lysates were analysed in the gamma-counter. To identify cyclosporine-A induced accumulation the experiment was also performed using culture medium lacking cyclosporine-A. As positive control the experiment was performed with ^99mTc-MIBI (100 kBq/well), a known P-gp substrate. To determine the lowermost concentration with which a maximum effect was obtained, cyclosporine-A was applied in a range of 0–50 µM and observed in a time frame of 30–120 min for both cell lines.

P-gp [11] = target: T2, P-gp; test: Bi-directional transport assay in Caco-2 cells; format: cell-based
Method: The procedure of initially adding equal concentrations to both compartments was adapted from the literature. Caco-2 cells were seeded near confluency in thin-cert inserts (translucent, Ø 0.4 µm, 24 well PET membrane, Greiner) and placed in multiwell plates (CELLSTAR 24 Multiwell plates, Greiner). The culture medium basolateral (multiwell) and apical (insert) was renewed every 2–3 days. Approximately 12 days after seeding the Caco-2 cells reached their highest trans-epithelial resistance, which was monitored every four days and on day of the experiment. An immunocytochemistry was also performed with an additional insert (translucent) to confirm stable formation of tight-junctions and cell monolayer. Culture medium was then removed and the cells were washed with PBS. Culture medium supplemented with cyclosporin (10 µM) was added to both compartments and the cells were incubated at 37 °C for 30 min. Afterwards 1 MBq [^18F]2b was added to each compartment. An aliquot was taken from each compartment after 0, 30, 60 and 90 min and analyzed in the gamma-counter. To identify cyclosporine-A induced accumulation the experiment was also performed using culture medium lacking cyclosporine-A. As positive control the experiment was performed with ^99mTc-MIBI (100 kBq/ compartment).

P-gp [12] = target: T2, P-gp; test: P-gp inhibition assay (cellular uptake) in EA.hy926 cells; format: cell-based; conditions: with vs without cyclosporin-A
Method: as §2

[13] = Caco-2, absence of cyclosporin-A, up to 90 min

T2 sequence (P08183 whole entry): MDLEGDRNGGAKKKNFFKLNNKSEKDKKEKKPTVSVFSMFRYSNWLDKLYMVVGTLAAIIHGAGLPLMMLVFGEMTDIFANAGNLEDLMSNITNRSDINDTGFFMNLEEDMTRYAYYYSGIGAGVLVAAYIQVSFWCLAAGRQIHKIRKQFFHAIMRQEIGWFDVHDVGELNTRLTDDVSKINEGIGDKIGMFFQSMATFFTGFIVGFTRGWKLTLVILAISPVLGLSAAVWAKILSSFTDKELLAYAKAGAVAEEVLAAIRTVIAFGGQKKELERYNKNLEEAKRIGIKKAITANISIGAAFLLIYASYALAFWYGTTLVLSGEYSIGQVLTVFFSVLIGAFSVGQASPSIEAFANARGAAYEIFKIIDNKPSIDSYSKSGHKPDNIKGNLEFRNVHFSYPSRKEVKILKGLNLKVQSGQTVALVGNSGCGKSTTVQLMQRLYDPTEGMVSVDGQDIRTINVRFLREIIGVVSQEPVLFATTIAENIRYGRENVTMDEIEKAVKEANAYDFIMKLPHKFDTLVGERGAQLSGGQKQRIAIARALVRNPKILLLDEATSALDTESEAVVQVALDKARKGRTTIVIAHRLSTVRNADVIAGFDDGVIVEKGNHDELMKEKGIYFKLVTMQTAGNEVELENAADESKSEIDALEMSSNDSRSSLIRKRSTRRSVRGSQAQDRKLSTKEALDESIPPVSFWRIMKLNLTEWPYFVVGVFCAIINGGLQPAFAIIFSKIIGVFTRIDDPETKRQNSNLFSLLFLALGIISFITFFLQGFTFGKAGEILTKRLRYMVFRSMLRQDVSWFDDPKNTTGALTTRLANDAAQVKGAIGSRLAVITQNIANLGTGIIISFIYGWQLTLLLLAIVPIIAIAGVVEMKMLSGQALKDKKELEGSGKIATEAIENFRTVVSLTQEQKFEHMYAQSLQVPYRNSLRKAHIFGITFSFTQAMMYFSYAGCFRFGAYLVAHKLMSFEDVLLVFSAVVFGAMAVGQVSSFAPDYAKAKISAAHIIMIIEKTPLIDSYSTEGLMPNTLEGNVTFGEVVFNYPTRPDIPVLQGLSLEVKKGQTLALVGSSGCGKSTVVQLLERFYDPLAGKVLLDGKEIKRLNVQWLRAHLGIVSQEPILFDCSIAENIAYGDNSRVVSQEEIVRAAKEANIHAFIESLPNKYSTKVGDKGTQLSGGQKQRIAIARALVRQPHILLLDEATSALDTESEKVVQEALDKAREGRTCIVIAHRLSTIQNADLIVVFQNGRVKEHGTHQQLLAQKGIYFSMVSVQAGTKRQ
T1 sequence (P19020 whole entry): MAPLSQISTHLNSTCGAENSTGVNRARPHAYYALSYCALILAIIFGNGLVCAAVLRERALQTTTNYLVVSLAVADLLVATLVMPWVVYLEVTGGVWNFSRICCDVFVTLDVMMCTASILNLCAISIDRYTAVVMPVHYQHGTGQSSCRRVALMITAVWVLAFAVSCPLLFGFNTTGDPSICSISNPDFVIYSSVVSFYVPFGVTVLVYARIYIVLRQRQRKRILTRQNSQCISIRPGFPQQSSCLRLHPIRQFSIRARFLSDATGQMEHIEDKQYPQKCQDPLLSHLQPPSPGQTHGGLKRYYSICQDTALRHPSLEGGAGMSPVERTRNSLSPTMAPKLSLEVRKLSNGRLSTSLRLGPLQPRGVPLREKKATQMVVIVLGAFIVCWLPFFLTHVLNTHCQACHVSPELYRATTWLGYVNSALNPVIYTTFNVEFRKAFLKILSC

## O=C(NCCC(O)CN1CCN(c2cccc(Cl)c2Cl)CC1)c1ccc(F)nc1 (centres unmarked) [[^18F]1, N-(4-(4-(2,3-Dichlorophenyl)piperazine-1-yl)-3-hydroxybutyl)-6-fluoronicotinamide]
[1]; 15 min post intravenous injection
  intact tracer in rat plasma: 57%
[1]; nearly constant over the total sampling time
  intact tracer in rat plasma: ~ 60%
[2]
  bound to proteins in plasma: 58%
  free radioligand in rat plasma: 42%
[3]
  logD: 2.5 ± 0.04
[4]
  decomposition in human serum: ≤ 2%
[5]
  binding to human plasma higher than in rat plasma: 20%–30%
D3 receptor [6]
  binding pattern in rat brain sections: pronounced non-specific binding in the corpus callosum and anterior commissure
D3 receptor [7]
  Ki: 1.9 nM
Dopamine D3 receptor; 30 min p.i.
  uptake in the pituitary gland: 0.45 %ID/g
Dopamine D3 receptor; after 50 seconds
  maximum uptake in the cerebral matter: 0.25 %ID/g
Dopamine D3 receptor; over the 60 min of recording
  uptake in the cerebral matter after wash-out: 0.17 %ID/g

## O=C(/N=N/c1ccc([18F])cc1)NCCC(O)CN1CCN(c2cccc(Cl)c2Cl)CC1 (centres unmarked) [[^18F]2a]
[2]
  bound to proteins in plasma: 82%
  free radioligand in rat plasma: 18%
[8]
  decomposition in human serum: no decomposition was observed
D3 receptor [6]
  binding pattern in rat brain sections: homogenous non-specific binding throughout the whole rat brain sections
D3 receptor [7]
  Ki: 3.6 nM
Dopamine D3 receptor
  brain uptake smaller than for [^18F]2b, factor: 1.5
Dopamine D3 receptor; 25 min p.i.
  uptake in the pituitary gland: 0.6 %ID/g
[9]
  Log D7.4: 2.56 ± 0.01

## [99Tc].[C-]#[N+]CC(C)(C)OC.[C-]#[N+]CC(C)(C)OC.[C-]#[N+]CC(C)(C)OC.[C-]#[N+]CC(C)(C)OC.[C-]#[N+]CC(C)(C)OC.[C-]#[N+]CC(C)(C)OC [^99mTc-MIBI, ^99mTc-methylisobutylnitrile, reference compound]
P-gp [10]
  influence of cyclosporin-A on cellular uptake: accumulated
P-gp [11]; [13]
  concentration in the apical compartment, % of the initial concentration: 120%
  concentration in the basolateral compartment, % of the initial concentration: 70%
P-gp [11]; Caco-2, presence of cyclosporin-A
  concentration in the basolateral compartment: remained nearly constant
P-gp [11]; Caco-2, presence of cyclosporin-A (^99mTc-MIBI after 60 and 90 min; [^18F]2b after 30 min)
  concentration in the apical compartment, % of the initial concentration: 90%
P-gp [12]
  influence of cyclosporin-A on cellular uptake: accumulated
